Tests used:
[1] = test system: tyrosine kinase activity; experiment: Tyrosine kinase ELISA on extracts of β-APP-transfected DAMI cells mixed with PS-1-transfected DAMI cells; type: cell-based, human
Description: All experiments after those in FIG. 7 (with the exception of FIG. 9a, Panel 4) were carried out with appropriately transfected DAMI cells only. Equal numbers (0.5×10^6/ml) of β-APP-transfected DAMI cells and either PS-1- or PS-2-transfected DAMI cells were mixed gently at room temperature, exactly as described (Dewji and Singer, 1998). In control experiments, DAMI cells transfected with pcDNA3 alone were substituted for the β-APP transfected cells.
At several times between 0 and 20 min after mixing, an aliquot of each cell mixture was rapidly centrifuged, the culture medium was removed, and the cell pellet was suspended in 200 μl of extraction buffer (50 mM Tris, pH 8.0/150 mM NaCl/0.5% Nonidet-P40) containing protease inhibitors (1 mM 4-(2-aminoethyl) benzene sulfonyl fluoride hydrochloride (AEBSF)/1 μg/ml antipain/0.1 μg/ml pepstatin A/0.1 μg/ml leupeptin) and the phosphatase inhibitor sodium orthovanadate (0.1 mM). The mixture was sonicated with three bursts of 20 sec duration and then centrifuged. These extract supernatants were then used for Western blot and ELISA analyses as described below.
ELISAs Protein tyrosine kinase activity was measured by an Enzyme Linked Immunosorbent Assay (ELISA) using a tyrosine kinase assay kit (Upstate Biotechnology). […]

[2] = test system: Aβ production; experiment: ELISA of Aβ produced in β-APP-only:PS-1-only co-culture extracts; type: cell-based, mouse; details: β-APP:PS-1 co-culture, Peptide 1-80 0-3 μM
Description: Co-cultures of β-APP-only and PS-1-only cells were carried out in the presence and absence of Peptide 1-80 (0-3 μM). ^35S-GTPγS assays were carried out on extracts as a measure of G-protein activation. The Aβ produced in these co-culture extracts was determined by ELISA.
ES-derived mouse cells (PS-1^−/−; PS-2^−/−) that expressed only small amounts of endogenous β-APP but no PS, were transiently transfected with cDNA for human β-APP to produce cells expressing excess human β-APP over mouse β-APP, and no PS-1 or PS-2 (β-APP-only cells). Embryonic (E18) mouse primary fibroblasts derived from β-APP-null mice, expressing only small amounts of endogenous PS-1 and PS-2, were transfected with cDNAs for human PS-1 to produce cells expressing excess human over mouse PS-1 but no β-APP (PS-1-only cells). The minigenes were co-transfected with PS-1 in the PS-only APP−/− fibroblasts to inhibit the endogenous mouse Gα under investigation in those cells. PS−/− ES cells were separately transfected with human β-APP cDNA (β-APP only cells) and the two types of cells were co-cultured for 24 hours. Cells were harvested and detergent-buffer extracts of the co-cultures were prepared. Determination of [^35S]GTPγS incorporation in these cultures was carried out in the presence and absence of each minigene: Aliquots each containing 100 μg total protein were reacted with ^35S-GTPγS and immunoprecipitation of each ^35S-GTPγS-treated extract was carried out with antibodies directed to the particular Gα under investigation. Specificity of binding of a particular Gα to PS-1 was established by blocking of GTPγS incorporation in the presence of the specific minigene inhibitor.
Co-culture of β-APP-only with PS-1-only cells was carried out as described above.
ELISA for the production of Aβ1-40 was carried out using sandwich ELISA kits (Biosource).

[3] = molecular target: Gαo (Mus musculus, UniProt P18872); experiment: 35S-GTPγS incorporation (G-protein activation) in β-APP-only:PS-1-only co-cultures, immunoprecipitation with Gαo antibody K-20; type: cell-based; details: β-APP:PS-1 co-culture, Peptide 1-80 0-3 μM
Source text: Two cell types were generated: ES-derived mouse cells (PS-1^−/−; PS-2^−/−) that expressed only small amounts of endogenous β-APP but no PS, were transiently transfected with cDNA for human β-APP to produce cells expressing excess human β-APP over mouse β-APP, and no PS-1 or PS-2 (β-APP-only cells). Embryonic (E18) mouse primary fibroblasts derived from β-APP-null mice, expressing only small amounts of endogenous PS-1 and PS-2, were transfected with cDNAs for human PS-1 to produce cells expressing excess human over mouse PS-1 but no β-APP (PS-1-only cells). […]
Co-cultures of β-APP-only and PS-1-only cells were carried out in the presence and absence of Peptide 1-80 (0-3 μM). ^35S-GTPγS assays were carried out on extracts as a measure of G-protein activation. The Aβ produced in these co-culture extracts was determined by ELISA. […]
^35S-GTPγS Assays: Extract (100 μg of total protein) was mixed with an equal volume of GTPγS Buffer B (50 mM HEPES/NaOH pH 7.4, 40 μM GDP, 50 mM MgCl2, 100 mM NaCl) and reacted with 50 nM ^35S-GTPγS (1250 Ci/mmol, Perkin Elmer, Waltham, Mass.) for 60 min at RT. […] The agarose beads were suspended in scintillation fluid (CytoScint, ICN) (5 ml) and counted in a Beckman Coulter LS 6000 SC scintillation counter for 3 min.

Sequence of Gαo (P18872 whole entry): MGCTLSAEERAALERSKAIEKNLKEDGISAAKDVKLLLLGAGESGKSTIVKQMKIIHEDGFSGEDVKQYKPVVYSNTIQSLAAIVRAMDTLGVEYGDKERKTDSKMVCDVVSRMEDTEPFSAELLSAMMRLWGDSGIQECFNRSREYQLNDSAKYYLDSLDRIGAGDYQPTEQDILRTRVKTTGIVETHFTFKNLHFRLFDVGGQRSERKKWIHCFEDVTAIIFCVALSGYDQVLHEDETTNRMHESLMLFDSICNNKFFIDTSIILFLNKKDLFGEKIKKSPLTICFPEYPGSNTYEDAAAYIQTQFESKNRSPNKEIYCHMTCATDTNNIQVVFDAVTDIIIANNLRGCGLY

CC(C)(C)n1nc(-c2ccc(Cl)cc2)c2c(N)ncnc21 [PP2]
tyrosine kinase activity after mixing ([1]; 10 nM PP2): inhibition

CO[C@H]1[C@@H](OC)C[C@H](C)[C@@H](OC)C2=CC(=O)C=C(NC(=O)/C(C)=C/C=C\[C@H](OC)[C@@H](OC(N)=O)/C(C)=C/[C@@H]1C)C2=O [herbimycin A]
increase in tyrosine kinase activity at 8-10 mins after mixing ([1]; 10 μg/ml herbimycin A): completely inhibited

Peptide 1-80: fusion construct of the water-soluble entire 80 amino acid NH2-terminal domain of PS-1
Aβ production by ELISA [2]: inhibited by Peptide 1-80 in a dose-dependent manner | G-protein (Gαo) activation, 35S-GTPγS assay [3]: inhibited by Peptide 1-80 in a dose-dependent manner

Source: US10774121B2, “Methods and compositions for treating neurodegenerative disorders and Alzheimer's Disease and improving normal memory” (The Regents of the University of California, priority 2006, dated 2020)
